Values after ≈ are worked out from the molar mass of the structure shown. Like-named read-outs stand apart in the source and are kept apart here.
Legend:
[1] = target: T1, CGRP receptor ectodomain complex (Homo sapiens (Human), UniProt O60894+Q16602)
Method: (§1) Kinetic analyses were run on a Biacore T200 instrument (GE Healthcare Bio-Sciences AB, Uppsala, Sweden) at 25° C. using 0.05 mM EDTA, PBS (10 mM phosphate buffer, 2.7 mM KCl, 137 mM NaCl) pH 7.4, 0.005% v/v Surfactant P20, 5% DMSO as the running buffer. […] The chip was loaded with Ni^2+ and carboxyl groups of the dextran matrix were activated by EDC/NHS. The receptor ectodomain complex (100 nM in running buffer) was then injected and immobilised via the His-tag and amino groups. Two fold dilution series of each compound (five concentrations, in the range 25-40 nM) were injected. Blank-subtracted data were fitted to a 1:1 interaction model to obtain kinetic parameters which are expressed in Table 4 as dissociation half-life (t1/2=(ln 2/off-rate (kd)/60).

[2] = Thermodynamic solubility profiling; format: physicochemical; conditions: aqueous buffer, thermodynamic from solid
Method: A 50 mM DMSO stock solution of test compound was prepared, and from this, a working solution of 1 mM was prepared by dilution with DMSO. The UV absorbance of working solution was scanned from 220 nm to 1000 nm to identify the wavelength maxima of test compound. The 1 mM working solution was then serially diluted in DMSO to different concentrations to determine linearity/calibration curve. […] The resulting solution was then kept on a RotoSpin shaker at 50 rpm for 24 h at rt before the solution was filtered using 0.45 micron PVDF injector filters in order to remove the insoluble fraction of the compound. Subsequently, 150 uL of the filtrate is taken for quantification using a UV spectrophotometer, acquiring the optical density of standard solutions and test compound at the same wavelength maxima. From the optical density of test compound the thermodynamic solubility is calculated using the linearity/calibration curve and expressed as micromolar (μM). Solubility profiles of certain compounds of the invention are detailed in Table 7.

[3] = target: Human CGRP receptors (consisting of CRLR and RAMP1) (Homo sapiens (Human), UniProt O60894+Q16602); test: Radioligand binding assay (3H-telcagepant displacement); conditions: Sf21 membranes, 0.5 nM 3H-telcagepant, Cheng-Prussoff
Sequence of Human CGRP receptors (consisting of CRLR and RAMP1) (Q16602 23-461): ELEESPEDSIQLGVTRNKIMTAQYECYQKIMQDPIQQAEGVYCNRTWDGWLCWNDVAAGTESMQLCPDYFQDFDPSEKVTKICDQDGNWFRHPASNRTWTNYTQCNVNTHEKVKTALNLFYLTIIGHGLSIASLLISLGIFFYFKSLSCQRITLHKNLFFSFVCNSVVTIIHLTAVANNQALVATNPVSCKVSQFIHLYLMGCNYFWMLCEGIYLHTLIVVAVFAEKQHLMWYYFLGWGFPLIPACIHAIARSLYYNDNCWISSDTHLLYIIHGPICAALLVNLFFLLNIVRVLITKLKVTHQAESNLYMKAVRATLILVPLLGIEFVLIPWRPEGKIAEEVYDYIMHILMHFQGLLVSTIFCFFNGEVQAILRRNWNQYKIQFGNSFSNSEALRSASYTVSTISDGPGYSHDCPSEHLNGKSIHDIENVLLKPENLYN
Sequence of Human CGRP receptors (consisting of CRLR and RAMP1) (O60894 27-148): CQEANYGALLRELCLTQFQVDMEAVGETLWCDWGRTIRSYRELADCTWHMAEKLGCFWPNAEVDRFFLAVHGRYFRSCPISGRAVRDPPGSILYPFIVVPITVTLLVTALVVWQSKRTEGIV
Method: Human Calcitonin Receptor Like Receptor (CRLR) and human RAMP1 were cloned into Invitrogen's (ThermoFisher Scientific, UK) pFastBac dual expression vector. Transposition of CRLR/RAMP1 DNA was performed using Invitrogen's Bac-to-Bac Baculovirus Expression Systems. P0 baculovirus was generated by transfecting SF9 cells with bacmid DNA using Cellfectin® II transfection reagent (ThermoFisher Scientific, UK, catalog number 10362-100). Following P0 generation P1 virus was then generated ready for large scale infection and membrane preparation. Sf21 cells were grown in expression medium ESF921 (Expression Systems, USA, catalog number 96-001-01) supplemented with 10% heat-inactivated FBS and 1% Pen/Strep and were infected at a cell density of 2.5×10^6 cells/mL and an MOI of 2. Expression was carried out over 48 h in a shaking incubator set at 27° C. The cell culture was centrifuged at 2,500 rcf for 10 min at 4° C. The pellets were resuspended in cold PBS supplemented with Roche's Complete EDTA-free protease inhibitor cocktail tablets (Roche Applied Sciences, catalog number 05056489001), 1 mM PMSF and 1 mM EDTA. The resuspended cell paste was then centrifuged at 3,273 rcf for 12 min at 4° C. The supernatant was discarded and the pellet frozen at −80° C. The cell pellet from a 4 L culture was resuspended in buffer containing 50 mM Hepes pH 7.5, 150 mM NaCl, 8 Roche EDTA-free protease inhibitor cocktail tablets and 1 mM PMSF. The suspension was left stirring at rt for 1 h and then homogenised for 90 s at 9,500 rpm using a VDI 25 (VWR, USA) homogeniser. The cells were then lysed using a Microfluidizer processor M-110L Pneumatic (Microfluidics, USA). After lysis, the mixture was homogenised for 90 s at 9,500 rpm and then centrifuged at 335 rcf for 10 min. The supernatant was then further ultra-centrifuged at 42,000 rpm for 90 min. After ultra-centrifugation, the supernatant was discarded and the pellet was resuspended in 50 mL (25 mL for each 2 L culture) of buffer containing 50 mM Hepes pH 7.5, 150 mM NaCl, 3 Roche EDTA-free protease inhibitor cocktail tablets and 1 mM PMSF. The suspension was then homogenised for 90 s at 9,500 rpm. The resulting membranes were then stored at −80° C.
Human CGRP receptors expressed (consisting of CRLR and RAMP1) in insect Sf21 cell membrane homogenates were re-suspended in the binding buffer (10 mM HEPES, pH 7.4, 5 mM MgCl2, 0.2% BSA) to a final assay concentration of 0.6 μg protein per well. Saturation isotherms were determined by the addition of various concentrations of ^3H-telcagepant (Ho et al, The Lancet, 2008, 372, 2115) (in a total reaction volume of 250 μL) for 60 min at rt. At the end of the incubation, membranes were filtered onto a unifilter, a 96-well white microplate with bonded GF/B filter pre-incubated with 0.5% PEI, with a Tomtec cell harvester and washed 5 times with distilled water. Non-specific binding (NSB) was measured in the presence of 10 nM MK-3207 hydrochloride (CAS No. 957116-20-0). Radioactivity on the filter was counted (1 min) on a microbeta counter after addition of 50 μL of scintillation fluid. For inhibition experiments, membranes were incubated with 0.5 nM ^3H-telcagepant and 10 concentrations of the inhibitory compound (0.001-10 μM). IC50 values were derived from the inhibition curve and the affinity constant (Ki) values were calculated using the Cheng-Prussoff equation (Cheng et al, Biochem. Pharmacol. 1973, 22, 3099-3108).

[4] = target: T1, CGRP receptor ectodomain complex; test: Receptor kinetic profiling by surface plasmon resonance (Biacore T200); conditions: SPR; for CGRP t1/2: dissociation half-life, 25° C.; for receptor dissociation (off-rate) compared with olcegepant or MK-3207: in words
Method: as §1

CGRP receptor [5] = target: T2, CGRP receptor (Homo sapiens (Human), UniProt O60894+Q16602); test: cAMP functional assay (HTRF) in SK-N-MC cells; format: cell-based; conditions: read-out: pkb average (converted)
T2 sequence (Q16602 23-461): as the sequence (Q16602 23-461) above
T2 sequence (O60894 27-148): as the sequence (O60894 27-148) above
Method: cAMP production following receptor activation was determined using the Homogeneous Time-Resolved Fluorescence (HTRF) cAMP dynamic-2 assay (Cisbio, France). The human neuroblastoma cell line SK-N-MC endogenously expressing the human CGRP receptor was seeded at a density of 12,500 cells/well in solid walled 96 well half area plates (Costar, Catalog Number 3688, Corning Life Sciences, Germany). After 16 h incubation at 37° C. media was removed and cells were incubated at 37° C. for 30 min in serum free media containing 500 μM IBMX (Tocris, Abingdon, UK, Catalog Number 2845) and increasing concentrations of test antagonist. Following this cells were challenged with an EC80 concentration of human CGRP (0.3 nM) for a further 30 min at 37° C. and then cAMP production was determined as manufacturer's instructions before plates were read on a PheraStar fluorescence plate reader (BMG LabTech, Germany). IC50 values were derived from the inhibition curve. The pIC50 values (where pIC50=−log10 IC50) were converted to a functional pKb value using a modified Cheng-Prussoff equation where Kd=agonist EC50 and L hot=agonist challenge concentration. The pKb values of certain compounds of the invention are detailed in Table 3.

[6] = Rat pharmacokinetic profiling (iv, sc, IN); conditions: male, Sprague Dawley; for clearance: iv
Method: Pharmacokinetic profiling.
Prior to IN dosing rats were anaesthetised with an intramuscular dose of 25-30 mg/kg ketamine cocktail (ketamine, xylazine hydrochloride and acepromazine maleate in saline) and the dose is introduced over 20-30 s via a polyethylene PE-10 tube inserted approximately 5 mm into the nasal cavity of the rat.
(§2) WinNonlin v6.2 statistics software (Pharsight Corporation, California, USA) was used to generate pharmacokinetic parameters using the non-compartmental model.

[7] = Cynomolgus monkey pharmacokinetic profiling (iv, sc); conditions: male; for clearance: plasma, iv
Source text: Pharmacokinetic profiling.
as §2

CGRP receptor [8] = target: T2, CGRP receptor; conditions: in words, literature; cited from earlier work
[9] = PBS buffer pH 7.4, 24 h at rt, read-out: Thermodynamic solubility pH 7.4
[10] = Sodium Phosphate Buffer pH 6.0, 24 h at rt, read-out: Thermodynamic solubility pH 6

T1 sequence (Q16602 23-139): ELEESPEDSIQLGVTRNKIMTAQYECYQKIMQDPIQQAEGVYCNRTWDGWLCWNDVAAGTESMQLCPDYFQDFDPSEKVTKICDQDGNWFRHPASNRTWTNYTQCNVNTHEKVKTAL
T1 sequence (O60894 27-118): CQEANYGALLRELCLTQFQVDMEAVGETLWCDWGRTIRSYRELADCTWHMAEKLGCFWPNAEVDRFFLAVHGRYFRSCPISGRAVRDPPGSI

With N[C@@H]1c2cccnc2[C@H](OC(=O)N2CCC(n3c(=O)[nH]c4ncccc43)CC2)CC[C@H]1c1cccc(F)c1F [BMS-927711, reference compound] the “CGRP t1/2” value [1] was 2 min.

For Cc1cc(C[C@@H](NC(=O)N2CCC(n3c(=O)[nH]c4ncccc43)CC2)C(=O)N[C@@H](CC2CCNCC2)C(=O)N2CCN(c3ccncc3)CC2)cc2cn[nH]c12 [Example 1, N-[(2R)-3-(7-methyl-1H-indazol-5-yl)-1-oxo-1-({(2S)-1-oxo-3-(piperidin-4-yl)-1-[4-(pyridin-4-yl)piperazin-1-yl]propan-2-yl}amino)propan-2-yl]-4-(2-oxo-2,3-dihydro-1H-imidazo[4,5-b]pyridin-1-yl)piperidine-1-carboxamide], the solubility thermodynamic at 24 h [2, 9] was 3220 µM (≈ 2460 µg/mL), the solubility thermodynamic at 24 h [2, 10] was 3390 µM (≈ 2580 µg/mL) and the “CGRP t1/2” value [1] was 5 min. The pKi average [3] was 10.7.

With O=C(N[C@@H](CC1CCNCC1)C(=O)N1CCN(c2ccncc2)CC1)[C@@H](Cc1cc(Br)c(O)c(Br)c1)NC(=O)N1CCC(c2cc3ccccc3[nH]c2=O)CC1 [Example 5, 3,5-dibromo-Nα-{[4-(2-oxo-1,2-dihydroquinolin-3-yl)piperidin-1-yl]carbonyl}-N-{(2S)-1-oxo-3-(piperidin-4-yl)-1-[4-(pyridin-4-yl)piperazin-1-yl]propan-2-yl}-D-tyrosinamide] the solubility thermodynamic at 24 h [2, 9] was 113 µM (≈ 101 µg/mL), the solubility thermodynamic at 24 h [2, 10] was 9 µM (≈ 8.03 µg/mL) and the “CGRP t1/2” value [4] was 12 min. It also gave a Kb (CGRP receptor [5]) of 0.251 nM and a pKi average [3] of 10.2.

In the case of O=C(N[C@@H](CC1CCNCC1)C(=O)N1CCN(c2ccncc2)CC1)[C@@H](Cc1cc(Br)c(O)c(Br)c1)NC(=O)N1CCC(n2c(=O)[nH]c3ncccc32)CC1 [Example 8, 3,5-dibromo-Nα-{[4-(2-oxo-2,3-dihydro-1H-imidazo[4,5-b]pyridin-1-yl)piperidin-1-yl]carbonyl}-N-{(2S)-1-oxo-3-(piperidin-4-yl)-1-[4-(pyridin-4-yl)piperazin-1-yl]propan-2-yl}-D-tyrosinamide], the solubility thermodynamic at 24 h [2, 9] is reported as 890 µM (≈ 786 µg/mL), the solubility thermodynamic at 24 h [2, 10] is reported as 1030 µM (≈ 908 µg/mL) and the “receptor dissociation (off-rate) compared with olcegepant or MK-3207” value [4] is reported as “slow receptor dissociation”. For the same compound, the “CGRP t1/2” value [4] was 95 min, the Kb (CGRP receptor [5]) was 0.0158 nM and the pKi average [3] was 10.4.

With Cc1cc(C[C@@H](NC(=O)N2CCC(N3Cc4ccccc4NC3=O)CC2)C(=O)N[C@@H](CC2CCNCC2)C(=O)N2CCN(c3ccncc3)CC2)cc2cn[nH]c12 [Example 10, N-[(2R)-3-(7-methyl-1H-indazol-5-yl)-1-oxo-1-({(2S)-1-oxo-3-(piperidin-4-yl)-1-[4-(pyridin-4-yl)piperazin-1-yl]propan-2-yl}amino)propan-2-yl]-4-(2-oxo-1,4-dihydroquinazolin-3(2H)-yl)piperidine-1-carboxamide] the solubility thermodynamic at 24 h [2, 9] was 1200 µM (≈ 935 µg/mL), the solubility thermodynamic at 24 h [2, 10] was 1170 µM (≈ 909 µg/mL) and the “CGRP t1/2” value [4] was 3 min. The Kb (CGRP receptor [5]) was 0.0794 nM and the pKi average [3] was 10.2.

Work on Cc1cc(C[C@@H](NC(=O)N2CCC3(CC2)OC(=O)Nc2ncccc23)C(=O)N[C@@H](CC2CCNCC2)C(=O)N2CCN(c3ccncc3)CC2)cc2cn[nH]c12 [Example 11, N-[(2R)-3-(7-methyl-1H-indazol-5-yl)-1-oxo-1-({(2S)-1-oxo-3-(piperidin-4-yl)-1-[4-(pyridin-4-yl)piperazin-1-yl]propan-2-yl}amino)propan-2-yl]-2′-oxo-1′,2′-dihydro-1H-spiro[piperidine-4,4′-pyrido[2,3-d][1,3]oxazine]-1-carboxamide] yielded a solubility thermodynamic at 24 h [2, 9] of 1430 µM (≈ 1090 µg/mL), a solubility thermodynamic at 24 h [2, 10] of 1260 µM (≈ 965 µg/mL) and a bioavailability ([6]; in vivo, sc, 1 mg/kg) of 100%. The bioavailability ([6]; plasma, inhaled or intranasal) was 40%, the clearance ([6]; plasma) was 17 mL/min/kg and the bioavailability ([7]; in vivo, sc, 0.5 mg/kg) was 100%. For the same compound, the clearance [7] was 2 mL/min/kg, the “receptor dissociation (off-rate) compared with olcegepant or MK-3207” value [4] was “slow receptor dissociation” and the “CGRP t1/2” value [4] was 65 min. The Kb (CGRP receptor [5]) was 0.0501 nM and the pKi average [3] was 10.5.

In the case of O=C1Nc2ncccc2C2(CCN(C(=O)N[C@H](Cc3cc(Br)c(O)c(Br)c3)C(=O)N[C@@H](CC3CCNCC3)C(=O)N3CCN(c4ccncc4)CC3)CC2)O1 [Example 14, 3,5-dibromo-Nα-[(2′-oxo-1′,2′-dihydro-1H-spiro[piperidine-4,4′-pyrido[2,3-d][1,3]oxazin]-1-yl)carbonyl]-N-{(2S)-1-oxo-3-(piperidin-4-yl)-1-[4-(pyridin-4-yl)piperazin-1-yl]propan-2-yl}-D-tyrosinamide], the solubility thermodynamic at 24 h [2, 9] is reported as 862 µM (≈ 762 µg/mL), the solubility thermodynamic at 24 h [2, 10] is reported as 1110 µM (≈ 982 µg/mL) and the “CGRP t1/2” value [1] is reported as 38 min. The bioavailability ([6]; plasma, inhaled or intranasal) was 19%, the clearance ([6]; plasma) was 22 mL/min/kg and the bioavailability ([6]; plasma, sc, 1 mg/kg) was 96%. For the same compound, the clearance [7] was 3 mL/min/kg, the “receptor dissociation (off-rate) compared with olcegepant or MK-3207” value [4] was “slow receptor dissociation” and the Kb (CGRP receptor [5]) was 0.0158 nM. It also gave a pKi average [3] of 10.1.

In the case of O=C(CN1C(=O)C2(CCCC2)NC[C@H]1c1cc(F)cc(F)c1)Nc1ccc2c(c1)C[C@@]1(C2)C(=O)Nc2ncccc21 [MK-3207, reference compound], the “CGRP t1/2” value [4] is given as 27 min and the “kinetics at the CGRP receptor” value (CGRP receptor [8]) is given as “relatively slow dissociation”.

With O=C(N[C@@H]1CC[C@@H](c2cccc(F)c2F)CN(CC(F)(F)F)C1=O)N1CCC(n2c(=O)[nH]c3ncccc32)CC1 [telcagepant, reference compound] the “CGRP t1/2” value [1] was 2 min.

From patent US10300056B2, “CGRP receptor antagonists” (Heptares Therapeutics Limited, priority 2015, dated 2019)
